Reference: patent US9603844B2, “Compositions and methods for treating mammary tumors” (GEORGETOWN UNIVERSITY, priority 2012, dated 2017)

Legend:
[1] = test system: BRCA1 protein levels; experiment: siRNA efficacy validation by Western blotting; format: cell-based; settings: minimum 48 hr exposure to 100 nM siRNA
Experimental: (catalog number: 43924220, Ambion/Life Technologies; and negative control-siRNA (catalog number: AM4461, Ambion). The efficacy of the ER-siRNA was validated by Western blotting. For siRNA treatments, subconfluent cells were treated with ER-specific or control siRNAs (final concentration of 100 nM) using siPORT Amine transfection reagent (Ambion), according to the manufacturer's instructions.

[2] = test system: cathepsin D (E2/ER-regulated gene) in MCF-7 cells; experiment: cathepsin D protein expression in MCF-7 cells; format: cell-based, human; settings: 24-hr exposure to E2 (10 nM)
Experimental: FIG. 7 depicts the ability of compounds 4631-P/1 and 35466-L/1 to inhibit the expression of an ER-regulated gene. Cathepsin D was used as a prototype E2/ER-regulated gene.
For Western blotting, after the indicated treatment(s), cells were harvested, and whole-cell lysates were prepared using RIPA buffer (Santa Cruz). Equal aliquots of whole-cell protein (either 100 μg unprecipitated whole-cell lysate or one half of the precipitated protein from 500 μg whole-cell lysate) were electrophoresed on 4-12% SDS-polyacrylamide gradient gels, transferred to nitrocellulose membranes (Millipore, Bedford, Mass.), and blotted using primary antibodies directed against BRCA1 (C-20, rabbit polyclonal, 1:200 dilution; Santa Cruz), ER (F10, mouse monoclonal, sc-8002, 1:500; Santa Cruz), and actin (goat polyclonal, catalog item sc-1615, 1:400; Santa Cruz). The membranes were then blotted with the appropriate secondary antibodies (1:1000; Santa Cruz), and the blotted proteins were visualized using an electrochemiluminescence (ECL) detection system (Amersham Biosciences), with colored markers (Bio-Rad Laboratories, Hercules, Calif.) as molecular size standards.

[3] = test system: ER activity in MCF-7 cells; experiment: ERE-TK-Luc reporter assay in MCF-7 cells; format: cell-based, human
Source text: (§1) FIG. 8 depicts BRCA1 over-expression partially restores Tamoxifen sensitivity to anti-estrogen-resistant LCC9 cells. The effect of BRCA1 over-expression (by transfection of a wild-type (wt) full-length BRCA1 expression vector) was studied in E2-insensitive anti-estrogen resistant LCC9 human breast cancer cells with E2-sensitive/anti-estrogen sensitive MCF-7 breast cancer cells. The wtBRCA1 suppressed the constitutive ER activity (measured using the ERE-TK-Luc reporter as a readout), but Tam (5 μM) by itself had no effect on ER activity (A and B (left)). […] When MCF-7 cells were tested in the absence of E2, ER activity was very low under most conditions (illustrating the requirement for E2 to activate ER), but in the absence of E2, Tam functioned as an ER agonist and caused about a (5-6)-fold increase in ER activity (P<0.001).
FIG. 9 depicts the inhibition of E2-stimulated ER activity in MCF-7 cells by six compounds.
Subconfluent cells in 24-well dishes were transfected overnight with 0.25 μg of each indicated vector plus the ERE-TK-Luc reporter in serum-free DMEM containing Lipofectamine2000 (Life Technologies). The total transfected DNA was kept constant by addition of the appropriate control vector. […]

[4] = test system: ER activity in LCC9 cells; experiment: ERE-TK-Luc reporter assay in LCC9 cells; format: cell-based, human; settings: Tam 5 μM, wtBRCA1 expression vector transfected
Experimental: FIG. 3 depicts the inhibition of ER activity in anti-estrogen resistant LCC9 cells. LCC9 cells in 24-well dishes were transfected overnight with the ERE-TK-Luc reporter plasmid (0.25 μg per well), washed, and allowed to recover for several hours in fresh culture medium. The cells were then treated with the indicated concentrations of the six bioactive compounds or vehicle only (DMSO) for 24 hr and assayed for luciferase activity. Luciferase activity is expressed as a percentage of the DMSO control. Values are means±SEMs of four replicate wells.
as §1, with “(P<0.001). […]” for “(P<0.001).”

[5] = test system: progesterone receptor (PR) activity in T47D cells; experiment: MMTV-Luc reporter assay for PR activity in T47D cells; format: cell-based, human; settings: R5020 10 nM
Experimental: FIG. 10 depicts that the inhibition of ER activity by these six compounds is not to due to non-specific cytotoxicity, since cell viability remained over 80% after a 24-hr exposure to 1 μM of each of the compounds (A). One of the compounds was tested for its ability to inhibit progestin-stimulated progesterone receptor (PR) activity in a PR+ human breast cancer cell line (T47D), using the MMTV-Luc reporter as a readout for PR activity (B). Here, PR activity was stimulated over 20-fold by the synthetic progestin R5020 (10 nM), but compound 4631-P/1 had no effect on PR activity at either 1 μM or 20 μM.
Progesterone receptor (PR) transcriptional activity assays were carried out in T47D cells using the synthetic progestin R5020 (10 nM) to activate PR and the MMTV-Luc reporter as a readout for PR activity.
Subconfluent proliferating MCF-7 cells were treated with vehicle (DMSO) or with the a sensitizing compound for 24 hours and then assayed for cell viability using MTT dye reduction assays. […] Subconfluent proliferating T47D cells were also transfected overnight with a progesterone-responsive reporter (MMTV-Luc) and then exposed to a synthetic progestin (R5020, 10 nM) for 24 hours in the absence or presence of compound 4631 P/1, as indicated.

## ER-siRNA: ER-α small interfering RNA, Ambion catalog number 43924220 (sense CAGGCACAUGAGUAACAAATT; antisense UUUGUUACUCAUGUGCCUGAT; chemistry not given here)
[1]
  reduction of the BRCA1 protein levels: > 75%

## C[C@]12CC[C@@H]3c4ccc(O)cc4CC[C@H]3[C@@H]1CC[C@@H]2O [E2, 17β-estradiol]
[2]
  cathepsin D protein levels after E2: increased significantly

## CC/C(=C(\c1ccccc1)c1ccc(OCCN(C)C)cc1)c1ccccc1 [Tam, Tamoxifen]
[3]; absence of E2, P<0.001
  increase in ER activity in the absence of E2: 5-6 fold
[3]; with E2
  E2-stimulated ER activity in MCF-7 cells (ERE-TK-Luc): strongly suppressed
[4]
  constitutive ER activity in LCC9 cells (ERE-TK-Luc): no effect

## CCC(=O)[C@@]1(C)CC[C@H]2[C@@H]3CCC4=CC(=O)CCC4=C3CC[C@@]21C [R5020]
[5]
  stimulation of PR activity: over 20 fold
